Numbered stars: 1 amine (or outer) side, 2 acyl side, 3 side chain; on linkers, the order of the positions; unused ones are H or OH. Bridge positions count the residues as written; N and C are the ends. Square brackets hold non-standard residues; d marks the D form. Peptide text beside a SMILES is read from it. Tyr(3-NO2) = N[C@@H](Cc1ccc(O)c([N+](=O)[O-])c1)C(=O)O; Glutaryl = O=C(CCCC(=O)[*:2])[*:1]; Orn = NCCC[C@H](N)C(=O)O
Conditions: 37 °C, RP-HPLC
Description: Peptide stability in serum is another limiting factor for AMPs as novel antibiotics.[30]
Peptide serum stability was performed according to D́Aloisio et al.[30] and Chen et al.[51] with some minor modifications. The serum stability was investigated using human serum (Sigma-Aldrich) from Human male AB plasma, USA origin, sterile-filtered. 250 μL serum was temperature-equilibrated at 37 °C and 100 μL aqueous peptide solution (L2: 1 mM; L3: 0.9 mM; L3-K: 0.7 mM; and C3: 0.5 mM) was added. RP-HPLC was measured at time intervals of 0, 0.5, 1, 4, and 24 h. For RP-HPLC samples, 30 μL of peptide solution was taken, 7 μL of Fmoc-Gly solution (4 mM) was added, and 2 μL of the sample was injected to HPLC. […]
Figure S 133. RP-HPLC chromatogram (gradient from 10 to 90% acetonitrile in water over 10 min at 2
ml/min, detection at 254 nm) of peptides tested for serum stability. A) peptide L2 B) peptide L3. C)
(1 picture or pasted object on this page, not shown here)

For `CC(C)[C@H]1NC(=O)[C@H](CCCN)NC(=O)[C@H]([C@@H](C)O)NC(=O)[C@H](CCCN)NC(=O)[C@H](Cc2c[nH]c3ccccc23)NC(=O)[C@@H](C)NC(=O)[C@@H](C(C)C)NC(=O)[C@@H](C)NC(=O)[C@H](Cc2c[nH]c3ccccc23)NC(=O)CCCC(=O)NCCCC[C@@H](C(N)=O)NC(=O)[C@H](Cc2ccc(O)c([N+](=O)[O-])c2)NC1=O` [C3] (W[dA][dV][dA]W[Orn]T[Orn][dV][Tyr(3-NO2)]K-NH2; linker N-11 via Glutaryl), the “stability in human serum” value (human serum from male AB plasma, 250 μL serum + 100 μL aqueous peptide solution (L2 1 mM; L3 0.9 mM; L3-K 0.7 mM; C3 0.5 mM), 0, 0.5, 1, 4, 24 h, Fmoc-Gly internal standard) was “stable after 24 h” and the “additional peaks / shoulder in chromatogram after 24 h in serum, total volume percentage” value (human serum, 24 h, detection at 254 nm) was “does not show any additional signal”.

— article PMC10788856, “Mimicking Nonribosomal Peptides from the Marine Actinomycete Streptomyces sp. H-KF8 Leads to Antimicrobial Peptides” (ACS Infectious Diseases, 2023)
